From article PMC10328743, “5-Nitro-3-(2-(4-phenylthiazol-2-yl)hydrazineylidene)indolin-2-one derivatives inhibit HIV-1 replication by a multitarget mechanism of action” (Frontiers in Cellular and Infection Microbiology, 2023) come the findings set out here.

Some results are limits rather than exact numbers.

Holding throughout (assay type): biochemical
The target of assay [1] is T1, HIV-1 IN (LEDGF/p75-dependent) (Human immunodeficiency virus type 1 group M subtype B, UniProt P12497).
T1 construct: Preparation of recombinant full-length IN and LEDGF proteins; made in house; host or cells: E. coli BL21(DE3)
In words: biochemical. To be noted: strand-transfer activity in the presence of LEDGF/p75; for IC50: read-out: IC50 IN LEDGF-dependent integration. The procedure:
Proteins were expressed in E. coli BL21(DE3). Briefly, His-IN was purified by loading the precipitate of cell lysate onto a Ni-Sepharose column and eluting with a […] imidazole gradient (0–500 mM) in a HEPES buffer (50 mM, pH 7.5) containing NaCl (1 M), CHAPS (7.5 mM), and β-mercaptoethanol (2 mM). FLAG-IN was purified by loading the precipitate of cell lysate onto a phenyl-sepharose and ammonium sulfate gradient (0–800 mM) in a HEPES (pH 7.5, 50 mM) buffer containing NaCl (200 mM), CHAPS (7.5 mM), and β-mercaptoethanol (2 mM). Peak fractions were pooled, loaded onto a heparin column, and eluted with an increasing NaCl gradient (200 mM to 1 M) in a HEPES (pH 7.5, 50 mM) buffer containing CHAPS (7.5 mm) and β-mercaptoethanol (2 mM). Fractions containing integrase were pooled and stored in glycerol (10%) at −80°C.
Briefly, IN (50 nM) was preincubated with increasing concentrations of compounds for 1 h at room temperature in a reaction buffer containing HEPES (20 mM, pH 7.5), DTT (1 mM), glycerol (1%), MgCl2 (20 mM), Brij-35 (0.05%), and bovine serum albumin (BSA) (0.1 mg/ml).

For another assay, the target named is T2, HIV-1 RT-associated RDDP (Human immunodeficiency virus type 1 group M subtype B, UniProt P04585).
T2 construct: The 1:1 ratio between the p66/p51 subunits was also verified; His tag (implied only by Ni-NTA IMAC purification); made in house; host or cells: Escherichia coli M15
In words: HIV-1 RNA-dependent DNA polymerase activity determination. Particulars: wt HIV-1 RT; three independent experiments, average ± standard deviation; read-out: RDDP IC50. The method, then:
(§1) Escherichia coli strain M15 containing the p6HRT-prot vector (provided by Stuart Le Grice laboratory (NCI Frederick)) was grown to an optical density at 600 nm of 0.7 and induced with 1.7 mM of isopropyl β-D-1-thiogalactopyranoside (IPTG) for 4 h. Protein purification was carried out with a BioLogic LP system (Bio-Rad, Hercules, CA, USA) using a combination of immobilized metal affinity chromatography (IMAC) and ion exchange chromatography. Cell pellets were resuspended in lysis buffer (50 mM of sodium phosphate buffer, pH 7.8, containing 0.5 mg/mL of lysozyme), incubated on ice for 20 min, and, after the addition of NaCl to a final concentration of 0.3 M, were sonicated and centrifuged at 30,000 ×g for 1 h. The supernatant was loaded onto a Ni^2+-NTA-Sepharose column pre-equilibrated with loading buffer (50 mM of sodium phosphate buffer, pH 7.8, containing 0.3 M of NaCl, 10% glycerol, and 10 mM of imidazole) and washed thoroughly with wash buffer (50 mM of sodium phosphate buffer, pH 6.0, containing 0.3 M of NaCl, 10% glycerol, and 80 mM of imidazole). RT was eluted with an imidazole gradient in the wash buffer (0–0.5 M). Fractions were collected, and protein purity was checked by sodium dodecyl sulfate–polyacrylamide gel electrophoresis (SDS-PAGE) and found to be higher than 90%. The 1:1 ratio between the p66/p51 subunits was also verified. Enzyme-containing fractions were pooled and diluted 1:1 with 50 mM of sodium phosphate buffer, pH 7.0, containing 10% glycerol, and then loaded into a Hi-trap heparin HP GE (Healthcare LifeScience) pre-equilibrated with 10 column volumes of loading buffer (50 mM of sodium phosphate buffer, pH 7.0, containing 10% glycerol, and 150 mM of NaCl). The column was then washed with loading buffer, and the RT was eluted with Elute Buffer 2 (50 mM of sodium phosphate, pH 7.0, 10% glycerol, 1 M of NaCl). Fractions were collected, and the protein was dialyzed and stored in a buffer containing 50 mM of Tris-HCl, pH 7.0, 25 mM of NaCl, 1 mM of EDTA, and 50% glycerol. Catalytic activities and protein concentrations were determined. Enzyme-containing fractions were pooled, and aliquots were stored at −80°C.
RDDP activity was measured as previously reported in 25-µl volume containing 60 mM of Tris‐HCl buffer, pH 8.1, 8 mM of MgCl2, 60 mM of KCl, 13 mM of DTT, 2.5 µM of poly(A)-oligo(dT), 100 µM of dTTP, increasing concentrations of inhibitors, whose dilution were made in water, and different amounts of enzymes according to a linear range of the dose–response curve. The reaction mixture was incubated for 30 min at 37°C and then stopped by the addition of EDTA. Reaction products were detected by pico green addition and measured with a multilabel counter plate reader Victor 3, equipped with filters for 502/523 nm.

Assay [2] addresses T3, HIV-1 RT-associated RNase H (Human immunodeficiency virus type 1 group M subtype B, UniProt P04585).
T3 construct: The 1:1 ratio between the p66/p51 subunits was also verified; His tag (implied only by Ni-NTA IMAC purification); made in house; host or cells: Escherichia coli M15
Description: HIV-1 DNA polymerase-independent RNase H activity determination. To be noted: wt HIV-1 RT; three independent experiments, average ± standard deviation; read-out: RNase H IC50. The method, then: as §1
HIV RT-associated RNase H activity was measured as described ([Corona et al., 2016b]) in a 100-µl reaction volume containing 50 mM of Tris-HCl buffer, pH 7.8, 6 mM of MgCl2, 1 mM of dithiothreitol (DTT), 80 mM of KCl, 0.25 µM of hybrid RNA/DNA 5′-[…]-Fluorescin-3′ (high-performance liquid chromatography (HPLC), dry, QC: Mass Check) (available from Metabion) 5′-Dabcyl-[…]-3′ (HPLC, dry, QC: Mass Check), increasing concentrations of inhibitors, whose dilution were made in water, and different amounts of enzymes according to a linear range of the dose–response curve. The reaction mixture was incubated for 1 h at 37°C and stopped by the addition of EDTA, and products were measured with a multilabel counter plate reader Victor 3 equipped with filters for 490/528 nm.

With `O=C1Nc2ccc(Cl)cc2/C1=N/Nc1nc(-c2ccc(Cl)c(Cl)c2)cs1` [9b], the “IC50 IN LEDGF-dependent integration” value in assay [1] is on record as “not able to inhibit IN”. For the same compound, the IC50 was more than 100 µM in assay [1], 24 ± 3 µM at HIV-1 RT-associated RDDP and 8.8 ± 1.3 µM in assay [2].
`Cc1ccc(-c2csc(N/N=C3\C(=O)Nc4ccc([N+](=O)[O-])cc43)n2)cc1` [10a]: the IC50 in assay [1] is 32.3 ± 2.7 µM; at HIV-1 RT-associated RDDP, 18 ± 1.5 µM; in assay [2], 8.5 ± 0.5 µM.
